Data reported in US12378249B2, “Isoquinoline compounds and uses thereof” (Genentech, Inc., priority 2018, dated 2025).

Biological target: HPK1 (Homo sapiens (Human), UniProt Q92918, S171E/T165E)
Assay: HPK1-FL HTRF Enzymatic Assay (HTRF)
Assay type: biochemical
Settings: HPK full length T165E S171E 0.125 nM, ATP 1 mM, Biotin-SLP76 100 nM, read-out: HPK1 Ki (nM), H = HTRF
Summary of the method: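 Ki derived from % activity calculated from the TR-FRET 665/620 ratio, using Eu-anti-pSLP76 and SA-XL665 detection added for 60 min. Reaction: compound preincubated 30 min with full-length double-mutant HPK1, then 60 min with Biotin-SLP-76 and 1 mM ATP, pH 7.5 HEPES buffer.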

Chain of HPK1 (Q92918 whole entry T165E/S171E): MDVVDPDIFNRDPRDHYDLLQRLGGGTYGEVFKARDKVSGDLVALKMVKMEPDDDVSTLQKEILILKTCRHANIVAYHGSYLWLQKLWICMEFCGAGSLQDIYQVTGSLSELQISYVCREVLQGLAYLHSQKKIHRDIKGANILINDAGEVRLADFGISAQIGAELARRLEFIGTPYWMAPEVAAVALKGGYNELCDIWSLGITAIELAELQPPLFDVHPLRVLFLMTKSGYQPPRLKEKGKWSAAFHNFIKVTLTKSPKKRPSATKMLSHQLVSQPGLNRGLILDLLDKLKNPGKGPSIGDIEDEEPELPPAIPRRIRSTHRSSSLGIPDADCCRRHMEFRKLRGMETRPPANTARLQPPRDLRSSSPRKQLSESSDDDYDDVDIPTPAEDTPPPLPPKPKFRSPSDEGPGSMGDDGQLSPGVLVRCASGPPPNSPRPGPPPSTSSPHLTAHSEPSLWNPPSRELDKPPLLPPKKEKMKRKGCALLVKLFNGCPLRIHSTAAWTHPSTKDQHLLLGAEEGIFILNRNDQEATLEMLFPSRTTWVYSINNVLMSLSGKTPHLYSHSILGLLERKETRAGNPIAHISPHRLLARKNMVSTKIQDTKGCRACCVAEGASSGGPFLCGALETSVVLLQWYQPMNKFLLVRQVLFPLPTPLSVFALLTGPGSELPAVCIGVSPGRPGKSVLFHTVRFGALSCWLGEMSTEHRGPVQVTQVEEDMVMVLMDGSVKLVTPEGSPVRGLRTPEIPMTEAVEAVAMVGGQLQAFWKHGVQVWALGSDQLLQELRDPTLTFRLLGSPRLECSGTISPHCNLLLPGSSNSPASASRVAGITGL

SMILES	Ki [nM]
Cc1c[nH]c2c(C)c(-c3cc4cc(Nc5cc6n(n5)CC(=O)N(C)CC6)ncc4cc3F)cnc12 [Compound 195, 2-((6-(3,7-dimethyl-1H-pyrrolo[3,2-b]pyridin-6-yl)-7-fluoroisoquinolin-3-yl)amino)-6-methyl-5,6-dihydro-4H-pyrazolo[1,5-d] [1,4]diazepin-7(8H)-one]	0.26
Cc1c(-c2cc3cc(Nc4cc5n(n4)CC(=O)NCC5)ncc3cc2F)cnc2c1NCCC2=O [Compound 196, 2-((7-fluoro-6-(4-methyl-8-oxo-5,6,7,8-tetrahydro-1,5-naphthyridin-3-yl)isoquinolin-3-yl)amino)-5,6-dihydro-4H-pyrazolo[1,5-d][1,4]diazepin-7(8H)-one]	0.1
Cc1c(NS(=O)(=O)C2CC2)cncc1-c1cc2cc(Nc3cc4n(n3)CC(=O)N(C)CC4)ncc2cc1F [Compound 197, N-(5-(7-fluoro-3-((6-methyl-7-oxo-5,6,7,8-tetrahydro-4H-pyrazolo[1,5-d][1,4]diazepin-2-yl)amino)isoquinolin-6-yl)-4-methylpyridin-3-yl)cyclopropanesulfonamide]	4.1
Cc1c(-c2cc3cc(Nc4cc5n(n4)CC(=O)N(C)CC5)ncc3cc2F)cnc2c(=O)n(C)[nH]c12 [Compound 209, 2-((6-(2,7-dimethyl-3-oxo-2,3-dihydro-1H-pyrazolo[4,3-b]pyridin-6-yl)-7-fluoroisoquinolin-3-yl)amino)-6-methyl-5,6-dihydro-4H-pyrazolo[1,5-d][1,4]diazepin-7(8H)-one]	1.9
Cc1c(CN)cncc1-c1cc2cc(Nc3cc4n(n3)CC(=O)N(C)CC4)ncc2cc1F [Compound 211, 2-((6-(5-(aminomethyl)-4-methylpyridin-3-yl)-7-fluoroisoquinolin-3-yl)amino)-6-methyl-5,6-dihydro-4H-pyrazolo[1,5-d][1,4]diazepin-7(8H)-one]	19
Cc1cc(CN)ncc1-c1cc2cc(Nc3cc4n(n3)CC(=O)N(C)CC4)ncc2cc1F [Compound 212, 2-((6-(6-(aminomethyl)-4-methylpyridin-3-yl)-7-fluoroisoquinolin-3-yl)amino)-6-methyl-5,6-dihydro-4H-pyrazolo[1,5-d][1,4]diazepin-7(8H)-one]	50
Cc1c(N)cnnc1-c1cc2cc(Nc3cc4n(n3)CC(=O)N(C)CC4)ncc2cc1F [Compound 216, 2-((6-(5-amino-4-methylpyridazin-3-yl)-7-fluoroisoquinolin-3-yl)amino)-6-methyl-5,6-dihydro-4H-pyrazolo[1,5-d][1,4]diazepin-7(8H)-one]	2.3
CNCc1cccc(-c2cc3cc(Nc4cc5n(n4)CC(=O)N(C)CC5)ncc3cc2F)c1C [Compound 217, 2-((7-fluoro-6-(2-methyl-3-((methylamino)methyl)phenyl)isoquinolin-3-yl)amino)-6-methyl-5,6-dihydro-4H-pyrazolo[1,5-d][1,4]diazepin-7(8H)-one]	64
CNCc1cc(-c2ccc3cnc(Nc4cc5n(n4)CC(=O)N(C)CC5)cc3c2)c(F)cc1C [Compound 220, 2-((6-(2-fluoro-4-methyl-5-((methylamino)methyl)phenyl)isoquinolin-3-yl)amino)-6-methyl-5,6-dihydro-4H-pyrazolo[1,5-d][1,4]diazepin-7(8H)-one]	176
Cc1c(-c2cc3cc(Nc4cc5n(n4)CC(=O)N(C)CC5)ncc3cc2F)ccc2c1CNC2 [Compound 221, 2-((7-fluoro-6-(4-methylisoindolin-5-yl)isoquinolin-3-yl)amino)-6-methyl-5,6-dihydro-4H-pyrazolo[1,5-d][1,4]diazepin-7(8H)-one]	97
Cc1c(-c2c(F)cc3cnc(Nc4cc5n(n4)CC(=O)N(C)CC5)cc3c2F)cnc2c1NCCO2 [Compound 223, 2-((5,7-difluoro-6-(8-methyl-2,3-dihydro-1H-pyrido[2,3-b][1,4]oxazin-7-yl)isoquinolin-3-yl)amino)-6-methyl-5,6-dihydro-4H-pyrazolo[1,5-d][1,4]diazepin-7(8H)-one]	0.04
Cc1c(N)cncc1-c1cc2cc(Nc3cc4n(n3)CC(=O)NCC43CC3)ncc2cc1F [Compound 224, 2′-((6-(5-amino-4-methylpyridin-3-yl)-7-fluoroisoquinolin-3-yl)amino)-5′,6′-dihydrospiro[cyclopropane-1,4′-pyrazolo[1,5-d][1,4]diazepin]-7′(8′H)-one]	0.013
Cc1c(N)cncc1-c1cc(F)c2cnc(Nc3cc4n(n3)CC(=O)NCC43CC3)cc2c1 [Compound 225, 2′-((6-(5-amino-4-methylpyridin-3-yl)-8-fluoroisoquinolin-3-yl)amino)-5′,6′-dihydrospiro[cyclopropane-1,4′-pyrazolo[1,5-d][1,4]diazepin]-7′(8′H)-one]	0.013

Continued by falling Ki, values first:

Ki [nM]	SMILES
364	CN1CCc2cc(Nc3cc4cc(-c5cccc6c5CNC6)c(F)cc4cn3)nn2CC1=O [Compound 215, 2-((7-fluoro-6-(isoindolin-4-yl)isoquinolin-3-yl)amino)-6-methyl-5,6-dihydro-4H-pyrazolo[1,5-d][1,4]diazepin-7(8H)-one]
127	CN1CCc2cc(Nc3cc4cc(-c5cccc6c5CCNC6)c(F)cc4cn3)nn2CC1=O [Compound 200, 2-((7′-fluoro-1,2,3,4-tetrahydro-[5,6′-biisoquinolin]-3′-yl)amino)-6-methyl-5,6-dihydro-4H-pyrazolo[1,5-d][1,4]diazepin-7(8H)-one]
119	Cc1[nH]ncc1-c1cc2cc(Nc3cc4n(n3)CC(=O)N(C)CC4)ncc2c(O)c1F [Compound 202, 2-((7-fluoro-8-hydroxy-6-(5-methyl-1H-pyrazol-4-yl)isoquinolin-3-yl)amino)-6-methyl-5,6-dihydro-4H-pyrazolo[1,5-d][1,4]diazepin-7(8H)-one]
97	Cc1c(-c2cc3cc(Nc4cc5n(n4)CC(=O)N(C)CC5)ncc3cc2F)cnc(=O)n1C [Compound 203, 2-((6-(1,6-dimethyl-2-oxo-1,2-dihydropyrimidin-5-yl)-7-fluoroisoquinolin-3-yl)amino)-6-methyl-5,6-dihydro-4H-pyrazolo[1,5-d][1,4]diazepin-7(8H)-one]
37	CNCc1cncc(-c2cc3cc(Nc4cc5n(n4)CC(=O)N(C)CC5)ncc3cc2F)c1C [Compound 210, 2-((7-fluoro-6-(4-methyl-5-((methylamino)methyl)pyridin-3-yl)isoquinolin-3-yl)amino)-6-methyl-5,6-dihydro-4H-pyrazolo[1,5-d][1,4]diazepin-7(8H)-one]
25	Cc1cc(CN)ccc1-c1cc2cc(Nc3cc4n(n3)CC(=O)N(C)CC4)ncc2cc1F [Compound 213, 2-((6-(4-(aminomethyl)-2-methylphenyl)-7-fluoroisoquinolin-3-yl)amino)-6-methyl-5,6-dihydro-4H-pyrazolo[1,5-d][1,4]diazepin-7(8H)-one]
22	Cc1c(CN)cccc1-c1cc2cc(Nc3cc4n(n3)CC(=O)N(C)CC4)ncc2cc1F [Compound 207, 2-((6-(3-(aminomethyl)-2-methylphenyl)-7-fluoroisoquinolin-3-yl)amino)-6-methyl-5,6-dihydro-4H-pyrazolo[1,5-d][1,4]diazepin-7(8H)-one]
7	CNCc1ccc(F)c(-c2ccc3cnc(Nc4cc5n(n4)CC(=O)N(C)CC5)cc3c2)c1C [Compound 219, 2-((6-(6-fluoro-2-methyl-3-((methylamino)methyl)phenyl)isoquinolin-3-yl)amino)-6-methyl-5,6-dihydro-4H-pyrazolo[1,5-d][1,4]diazepin-7(8H)-one]
5.2	CNCc1cc(C)c(-c2ccc3cnc(Nc4cc5n(n4)CC(=O)N(C)CC5)cc3c2)c(F)c1 [Compound 222, 2-((6-(2-fluoro-6-methyl-4-((methylamino)methyl)phenyl)isoquinolin-3-yl)amino)-6-methyl-5,6-dihydro-4H-pyrazolo[1,5-d][1,4]diazepin-7(8H)-one]
5	CNC1CCN(c2cc(C)c(-c3cc4cc(Nc5cc6n(n5)CC(=O)N(C)CC6)ncc4cc3F)cn2)CC1 [Compound 199, 2-((7-fluoro-6-(4-methyl-6-(4-(methylamino)piperidin-1-yl)pyridin-3-yl)isoquinolin-3-yl)amino)-6-methyl-5,6-dihydro-4H-pyrazolo[1,5-d][1,4]diazepin-7(8H)-one]
4.2	Cc1cc(N2CCNCC2)ncc1-c1cc2cc(Nc3cc4n(n3)CC(=O)N(C)CC4)ncc2cc1F [Compound 198, 2-((7-fluoro-6-(4-methyl-6-(piperazin-1-yl)pyridin-3-yl)isoquinolin-3-yl)amino)-6-methyl-5,6-dihydro-4H-pyrazolo[1,5-d][1,4]diazepin-7(8H)-one]
0.83	Cc1c(-c2cc3cc(Nc4cc5n(n4)CC(=O)N(C)CC5)ncc3cc2F)cnnc1N [Compound 194, 2-((6-(6-amino-5-methylpyridazin-4-yl)-7-fluoroisoquinolin-3-yl)amino)-6-methyl-5,6-dihydro-4H-pyrazolo[1,5-d][1,4]diazepin-7(8H)-one]
0.29	CN1CCc2cc(Nc3cc4cc(-c5cncc(N)c5C(F)(F)F)c(F)cc4cn3)nn2CC1=O [Compound 227, 2-((6-(5-amino-4-(trifluoromethyl)pyridin-3-yl)-7-fluoroisoquinolin-3-yl)amino)-6-methyl-5,6-dihydro-4H-pyrazolo[1,5-d][1,4]diazepin-7(8H)-one]
0.18	Cc1c(CS(C)(=O)=O)cncc1-c1cc2cc(Nc3cc4n(n3)CC(=O)N(C)CC4)ncc2cc1F [Compound 204, 2-((7-fluoro-6-(4-methyl-5-((methylsulfonyl)methyl)pyridin-3-yl)isoquinolin-3-yl)amino)-6-methyl-5,6-dihydro-4H-pyrazolo[1,5-d][1,4]diazepin-7(8H)-one]
0.02	Cc1c(-c2cc3cc(Nc4cc5n(n4)CC(=O)N(C)CC5)ncc3cc2F)cnc2c1NCCC2(F)F [Compound 208, 2-((6-(8,8-difluoro-4-methyl-5,6,7,8-tetrahydro-1,5-naphthyridin-3-yl)-7-fluoroisoquinolin-3-yl)amino)-6-methyl-5,6-dihydro-4H-pyrazolo[1,5-d][1,4]diazepin-7(8H)-one]
